In patent US11083725B2 (priority 2014, dated 2021):
Read-outs that look alike come from different tables or passages of the source.

Legend:
[1] = test system: NHBE cells; experiment: cells; type: cell-based, human
[2] = test system: CA09; experiment: microbe, parasite or virus in culture; type: cell-based, influenza virus H1N1 strain A/CA/04/2009; design: TCID50 (per mL): unit not given here; details: for log reduction at 10 pM / log reduction at 0.0001 µM / log reduction at 0.001 µM / log reduction at 0.01 µM / log reduction at 0.1 µM / log reduction at 1 µM / log reduction at 10 µM / log reduction at 100 µM: NHBE, read-out: TCID50 (per mL)
[3] = Homo sapiens, NHBE, 72 h, […], prophylactic schedule, dose response 4 nM to 10 μM, […], read-out: IC50, Prophylactic Treatment, Control
[4] = Homo sapiens, NHBE, read-out: IC50, Prophylactic Treatment, Viral Infected
[5] = […], prophylactic schedule, dose response 4 nM to 10 μM, […], read-out: IC50, Prophylactic Treatment, Control
[6] = Homo sapiens, NHBE, 72 h, read-out: IC50, Prophylactic Treatment, Control
[7] = read-out: IC50, Prophylactic Treatment, Control
[8] = read-out: IC50, Prophylactic Treatment, Viral Infected
[9] = Therapeutic Drug Treatment, Drug Dose 10 pM, […]
[10] = Therapeutic Drug Treatment, Drug Dose 100 pM, […]
[11] = Therapeutic Drug Treatment, Drug Dose 1 nM, […]
[12] = Therapeutic Drug Treatment, Drug Dose 10 nM, […]
[13] = Therapeutic Drug Treatment, Drug Dose 100 nM, […]
[14] = Therapeutic Drug Treatment, Drug Dose 1 μM, […]
[15] = Therapeutic Drug Treatment, Drug Dose 10 μM, […]
[16] = Therapeutic Drug Treatment, Drug Dose 100 μM, […]
[17] = follow up validation titer, therapeutic treatment
[18] = […], therapeutic schedule, dose response 4 nM to 10 μM, […], read-out: IC50, Therapeutic Treatment, Control
[19] = Homo sapiens, NHBE, 72 h, read-out: IC50, Therapeutic Treatment, Control
[20] = […], dose response 4 nM to 10 μM, […], read-out: IC50, Prophylactic Treatment, Viral Infected
[21] = […], dose response 4 nM to 10 μM, […], read-out: IC50, Therapeutic Treatment, Viral Infected

Compound: Cc1cc([C@@H](C)Nc2ccccc2C(=O)O)c2nc(N3CCOCC3)cc(=O)n2c1 [AZD-6482]
- IC50 [1, 3]: 5 µM

Compound: C=C(C)[C@@H]1CC[C@]2(C(=O)O)CC[C@]3(C)[C@H](CC[C@@H]4[C@@]5(C)CC[C@H](O)C(C)(C)[C@@H]5CC[C@]43C)[C@@H]12 [Betulinic Acid]
- IC50 [1, 4]: 2 µM
- log reduction at 10 pM [2]: 0.37
- log reduction at 0.0001 µM [2]: 0.63
- log reduction at 0.001 µM [2]: 0.51
- log reduction at 0.01 µM [2]: 0.55
- log reduction at 0.1 µM [2]: 0.31
- log reduction at 1 µM [2]: 0.96
- log reduction at 10 µM [2]: 0.61
- log reduction at 100 µM [2]: 0.59

Compound: N#C/C(=C\c1ccc(O)cc1)C(=O)O [ALPHA-CYANO-4-HYDROXYCINNAMIC ACID]
- IC50 [1, 5]: 3 µM

Compound: NC(=O)N1CCC(CC(=O)N2CCC([C@H]3c4ncc(Br)cc4CCc4cc(Cl)cc(Br)c43)CC2)CC1 [Lonafarnib]
- Cell Death Prophylactic [1]: C > V
- IC50 [1, 6]: 1.9 µM
- IC50 [1, 4]: 1.3 µM
- log reduction at 10 pM [2]: 0.04
- log reduction at 0.0001 µM [2]: 0.15
- log reduction at 0.001 µM [2]: 0.56
- log reduction at 0.01 µM [2]: -0.06
- log reduction at 0.1 µM [2]: 0.3
- log reduction at 1 µM [2]: 1.16
- log reduction at 10 µM [2]: 0.28
- log reduction at 100 µM [2]: 1.25

Compound: NOCC(=O)O
- IC50 [1, 7]: 5 µM
- IC50 [1, 8]: 10 µM

Compound: CC(C)n1c(/C=C/C(O)CC(O)CC(=O)O)c(-c2ccc(F)cc2)c2ccccc21 (stereo not drawn) [Fluvastatin]
- log reduction at 10 pM [2, 9]: 0.16
- log reduction at 0.0001 µM [2, 10]: 0.5
- log reduction at 0.001 µM [2, 11]: 0.18
- log reduction at 0.01 µM [2, 12]: 0.34
- log reduction at 0.1 µM [2, 13]: 0.15
- log reduction at 1 µM [2, 14]: 0.51
- log reduction at 10 µM [2, 15]: 0.75
- log reduction at 100 µM [2, 16]: -0.33

Compound: CO/C(=C\C(N)=O)[C@H](C)[C@H](/C=C/c1csc(-c2csc([C@@H](C)/C=C/C=C/C(C)C)n2)n1)OC [Myxothiazol]
- Cell Death Prophylactic [1]: C = V
- Cell Death Therapeutic [1]: C > V

Compound: C=C(C)[C@H]1Cc2c(ccc3c2O[C@@H]2COc4cc(OC)c(OC)cc4[C@@H]2C3=O)O1 [Rotenone]
- Cell Death Prophylactic [1]: C > V
- Cell Death Therapeutic [1]: C > V
- log reduction at 10 pM [2, 9]: 0.09
- log reduction at 0.0001 µM [2, 10]: 0.15
- log reduction at 0.001 µM [2, 11]: 0.9
- log reduction at 0.01 µM [2, 12]: 0.04
- log reduction at 0.1 µM [2, 13]: 0.07
- log reduction at 1 µM [2, 14]: 0.5
- log reduction at 10 µM [2, 15]: 1.14
- log reduction at 100 µM [2, 16]: -0.05

Compound: O=C(O)c1nn(Cc2ccc(Cl)cc2Cl)c2ccccc12 [Lonidamine]
- log reduction at 10 pM [2]: 0.94
- log reduction at 0.0001 µM [2]: 0.54
- log reduction at 0.001 µM [2]: 0.54
- log reduction at 0.01 µM [2]: 0.67
- log reduction at 0.1 µM [2]: 0.24
- log reduction at 1 µM [2]: 0.24
- log reduction at 10 µM [2]: 0.18
- log reduction at 100 µM [2]: 0.65

Compound: COc1ccc(Cc2nnc(NS(=O)(=O)c3ccccc3)s2)cc1 [OU749]
- log reduction at 10 pM [2]: 0
- log reduction at 0.0001 µM [2]: 0.65
- log reduction at 0.01 µM [2]: 0.35
- log reduction at 10 µM [2]: 0.46
- Viral Titer Therapeutic [2, 17]: Reduced

Compound: LB 42708
- IC50 [1, 18]: 0.0045 µM

Compound: COc1cc(/C=C/C(=O)CC(=O)/C=C/c2ccc(O)c(OC)c2)ccc1O [CURCUMIN]
- IC50 [1, 3]: 0.001 µM

Compound: CCc1c(-c2ccccc2)c(-c2ccccc2)nn1-c1ccccc1-c1cccc(OCC(=O)O)c1 [FABP4 Inhibitor]
- Cell Death Prophylactic [1]: V > C
- IC50 [1, 19]: 4 µM
- Viral Titer Prophylactic [2]: Reduced

Compound: CC[C@@H]1/C=C/C=C/C[C@H](C)[C@@H](O)[C@](C)(O)C(=O)[C@H](C)[C@@H](O)[C@H](C)C(=O)[C@H](C)[C@@H](O)[C@H](C)/C=C/C(=O)O[C@H]2[C@@H](C)[C@@H](CC1)O[C@@]1(CC[C@@H](C)C(CC(C)O)O1)[C@@H]2C (stereo partly drawn) [Oligomycin A]
- Cell Death Prophylactic [1]: C > V
- Cell Death Therapeutic [1]: C > V
- Viral Titer Therapeutic [2]: Reduced
- log reduction at 10 pM [2]: 0.92
- log reduction at 0.0001 µM [2]: 0.23
- log reduction at 0.001 µM [2]: 0.51
- log reduction at 0.01 µM [2]: 0.6
- log reduction at 0.1 µM [2]: 0.38
- log reduction at 1 µM [2]: 0.77
- log reduction at 10 µM [2]: 0.66
- log reduction at 100 µM [2]: 0.28

Compound: PF 429242
- IC50 [1, 20]: 6 µM

Compound: Cn1cncc1[C@@](N)(c1ccc(Cl)cc1)c1ccc2c(c1)c(-c1cccc(Cl)c1)cc(=O)n2C [Tipifarnib]
- IC50 [1, 6]: 0.012 µM
- IC50 [1, 19]: 0.013 µM
- IC50 ([1]; Homo sapiens, NHBE, read-out: IC50, Therapeutic Treatment, Viral Infected): 0.033 µM
- log reduction at 10 pM [2]: 0.02
- log reduction at 0.0001 µM [2]: 0.73
- log reduction at 0.001 µM [2]: 1.04
- log reduction at 0.01 µM [2]: 0.6
- log reduction at 0.1 µM [2]: -0.16
- log reduction at 1 µM [2]: 1.04
- log reduction at 10 µM [2]: 1.4
- log reduction at 100 µM [2]: 0

Compound: CS(=O)(=O)N1CCN(Cc2cc3nc(-c4cccc5[nH]ncc45)nc(N4CCOCC4)c3s2)CC1 [GDC-0941]
- Cell Death Prophylactic [1]: C = V
- Cell Death Therapeutic [1]: C = V
- NHBE cell survival / cell death after infection [1]: no effect

Compound: O=C([O-])CC(O)C(=O)[O-].[Na+].[Na+] (racemic) [DISODIUM DL-MALATE HYDRATE]
- IC50 [1, 21]: 7 µM
- IC50 [1, 5]: 0.03 µM

Compound: CCC(C)(C)C(=O)O[C@H]1C[C@@H](C)C=C2C=C[C@H](C)[C@H](CC[C@@H]3C[C@@H](O)CC(=O)O3)[C@H]21 [SIMVASTATIN]
- IC50 ([1]; Homo sapiens, NHBE, 72 h, […], therapeutic schedule, dose response 4 nM to 10 μM, […], read-out: IC50, Therapeutic Treatment, Control): 0.005 µM

Compound: OLIGOMYCIN (A SHOWN)
- IC50 ([1]; read-out: IC50, Therapeutic Treatment, Control): 1 µM
- IC50 ([1]; read-out: IC50, Therapeutic Treatment, Viral Infected): 0.004 µM

Compound: O=[N+]([O-])c1ccc(O)c([N+](=O)[O-])c1 [2,4-DINITROPHENOL]
- IC50 [1, 21]: 4 µM
- IC50 [1, 5]: 0.38 µM
- IC50 [1, 18]: 8 µM

Compound: CCc1ccc(CCOc2ccc(CC3SC(=O)NC3=O)cc2)nc1 (stereo not drawn) [Pioglitazone]
- Cell Death Prophylactic [1]: C > V
- log reduction at 10 pM [2]: 0.22
- log reduction at 0.0001 µM [2]: 0.8
- log reduction at 0.001 µM [2]: 0.66
- log reduction at 0.01 µM [2]: 0.47
- log reduction at 0.1 µM [2]: -0.1
- log reduction at 1 µM [2]: 0.49
- log reduction at 10 µM [2]: 0.73
- log reduction at 100 µM [2]: 0.23

Compound: CSCC[C@H](NC(=O)[C@H](Cc1ccccc1)NC[C@@H](NC[C@@H](N)CS)C(C)C)C(=O)O [FTASE INHIBITOR I]
- IC50 [1, 21]: 0.2 µM
- IC50 [1, 18]: 0.09 µM

Compound: Nc1cc(C(F)(F)F)c(-c2cc(N3CCOCC3)nc(N3CCOCC3)n2)cn1 [NVP-BKM120]
- Cell Death Prophylactic [1]: C = V
- Cell Death Therapeutic [1]: C = V
- NHBE cell survival / cell death after infection [1]: no effect
- log reduction at 10 pM [2]: 0
- log reduction at 0.0001 µM [2]: 0.4
- log reduction at 0.001 µM [2]: 0.76
- log reduction at 0.01 µM [2]: 0
- log reduction at 0.1 µM [2]: 0.29
- log reduction at 1 µM [2]: -0.08
- log reduction at 10 µM [2]: 0.07
- log reduction at 100 µM [2]: -0.37

Compound: CC(C)c1c(C(=O)Nc2ccccc2)c(-c2ccccc2)c(-c2ccc(F)cc2)n1CC[C@@H](O)C[C@@H](O)CC(=O)O [ATORVASTATIN CALCIUM]
- IC50 [1, 7]: 3 µM
- IC50 [1, 8]: 3 µM

Compound: [O]=[V]1(=[O])(=[O])(=[O])[n+]2cccc3ccc4ccc[n+]1c4c32 [BP/(PHEN)]
- Cell Death Prophylactic [1]: V > C
- TCID50 (per mL) [2, 9]: −0.50
- TCID50 (per mL) [2, 10]: −0.54
- TCID50 (per mL) [2, 11]: −0.44
- TCID50 (per mL) [2, 12]: −0.74
- TCID50 (per mL) [2, 13]: −0.13
- TCID50 (per mL) [2, 14]: −0.32
- TCID50 (per mL) [2, 15]: −0.10
- TCID50 (per mL) [2, 16]: −0.18

Compound: CCn1nnc2c(N3CCOCC3)nc(-c3ccc(NC(=O)Nc4ccc(C(=O)N5CCN(C)CC5)cc4)cc3)nc21 [PKI-402]
- Cell Death Prophylactic [1]: C = V
- Cell Death Therapeutic [1]: C = V
- NHBE cell survival / cell death after infection [1]: no effect
- IC50 [1, 20]: 3 µM
- IC50 [1, 18]: 0.002 µM

Compound: O=C1Nc2ccc3ncsc3c2/C1=C/c1cnc[nH]1 [IMIDAZOLO-OXINDOLE PKR INHIBITOR C16]
- IC50 [1, 18]: 0.07 µM

Compound: OO.OO.[K+].[OH-].[V].c1cnc2c(c1)ccc1cccnc12 [BPV(PHEN)]
- IC50 [1, 18]: 0.005 µM

Compound: C=C1C(=O)O[C@H](CCCCCCCC)[C@H]1C(=O)O [C75]
- Cell Death Prophylactic [1]: C > V
- Cell Death Therapeutic [1]: C = V

Compound: CC(C)(Oc1ccc(CCNC(=O)c2ccc(Cl)cc2)cc1)C(=O)O [BEZAFIBRATE]
- IC50 [1, 3]: 7.2 µM

Compound: O=C(O)Cn1nnc(-c2cc(N3CCC(Oc4cc(F)ccc4Br)CC3)no2)n1 [MK-8245]
- IC50 [1, 3]: 5 µM

Compound: CCCCCCCCCCCCCCOc1ccc(C(=O)O)o1 [TOFA]
- IC50 [1, 5]: 4 µM

Compound: CC(C)c1nc(N(C)S(C)(=O)=O)nc(-c2ccc(F)cc2)c1/C=C/[C@@H](O)C[C@@H](O)CC(=O)O [Rosuvastatin]
- log reduction at 10 pM [2]: 0
- log reduction at 0.0001 µM [2]: 0.15
- log reduction at 0.001 µM [2]: 0.76
- log reduction at 0.01 µM [2]: 0.66
- log reduction at 0.1 µM [2]: 0.41
- log reduction at 1 µM [2]: 1
- log reduction at 10 µM [2]: 0.79
- log reduction at 100 µM [2]: 0.64
- Viral Titer Therapeutic [2, 17]: Reduced
